According to publication PMC8524858, “Dual inhibition of αvβ6 and αvβ1 reduces fibrogenesis in lung tissue explants from patients with IPF” (Respiratory Research, 2021):

Key:
human integrin αvβ8 = target: T1, human integrin αvβ8 (Homo sapiens, UniProt P06756+P26012); test: Integrin ligand-binding assay, αvβ8 (LAP ligand)
T1 construct: purchased R&D Systems 4135-AV
Method: (§1) Integrin ligand-binding assays were performed similar to that previously described.
(§2) Microplates were coated with recombinant human integrins dissolved in PBS (2 µg/ml, overnight at room temperature). Following removal of the coating solution, plates were washed with PBS. Plates were blocked with 200 µL/well of blocking buffer (2% bovine serum albumin [BSA] in PBS) at 37 °C for 1 h. […] Plates were incubated for 2 h at 25 °C, washed, and incubated for 1 h with biotin-labeled anti-fibronectin or anti-LAP antibodies (for αvβ1 or αvβ6/αvβ8, respectively).

human integrin αvβ3 = target: T2, human integrin αvβ3 (Homo sapiens, UniProt P05106+P06756); test: Integrin ligand-binding assay, αvβ3 (vitronectin ligand)
T2 construct: purchased R&D Systems 3050-AV
Method: as §1, §2

[1] = system: normal human lung fibroblast adhesion to LAP; test: Primary cell LAP adhesion assay (cell impedance), normal HLF; assay type: cell-based; conditions: HLFs isolated from normal lung tissue, read-out: IC50 for blocking adhesion to LAP
Method: (§3) Adhesion of primary human lung cells to LAP was quantified using the xCELLigence RTCA MP instrument (ACEA Biosciences; San Diego, CA, USA) via cell impedance measurements similar to that previously described.
(§4) Adhesion assays were performed using the xCELLigence RTCA MP instrument (ACEA Biosciences; San Diego, CA, USA) on 96-well PET plates (ACEA Biosciences; 300600910) via a cell impedance measurement similar to one previously described (E6). Plates were coated with LAP (Sino Biological; 10804-H08H1) overnight at 4 °C and blocked with BSA for 2 h at 37 °C. NHLF (40,000 cells/well), dHLF (40,000 cells/well), or NHBE (20,000 cells per well) in FBS-free media were combined with small-molecule integrin inhibitors or antibodies in the plates and incubated at 37 °C with 5% CO2. […] Anti-αv antibody, 17E6, and anti-β1 antibody, P5D2, were tested at a single concentration (10 μg/ml). Cell impedance (cell index) was measured at baseline and every 3 min for up to 24 h using xCELLigence RTCA 2.1.0 Software (ACEA Biosciences). […] Geometric mean IC50 was calculated for each compound following repeat analyses of multiple donor cells.

[2] = target: T3, αvβ6-induced TGF-β activation (Homo sapiens, UniProt P06756+P18564); test: TGF-β co-culture assay, SW-β6 cells with MLEC luciferase reporter cells; assay type: cell-based; conditions: integrin αvβ6
T3 construct: expressed in transfected cells; host or cells: SW480 cells stably transfected with β6 (SW-β6), co-cultured with MLEC reporter cells
Method: SW-β6 cells and MLECs or CHO-αv cells and MLECs were cultured in 96-well plates with test compounds or antibodies for 20 h at 37 °C in a 5% CO2 incubator. […] Measurement of MLEC luciferase production resulting from αvβ6- or αvβ1-mediated TGF-β activation was performed using the Bright-Glo Luciferase Assay System (Promega; Madison, WI, USA) according to manufacturer’s instruction. Luminescence was quantified by a Tecan Spark 10M plate reader. IC50 curves were generated using Dotmatics software suite with five-parameter logistic curve fitting. Geometric mean IC50 was calculated for each compound from multiple independent analyses.

human integrin αvβ1 = target: T4, human integrin αvβ1 (Homo sapiens, UniProt P05556+P06756); test: Integrin ligand-binding assay, αvβ1 (fibronectin ligand)
T4 construct: purchased ACROBiosystems or R&D Systems IT1-H52E1 or 6579-AVB
Method: as §1, §2

[3] = system: IPF lung fibroblast adhesion to LAP; test: Primary cell LAP adhesion assay (cell impedance), IPF HLF; assay type: cell-based; conditions: Homo sapiens, HLFs isolated from fibrotic (IPF) lung tissue, read-out: IC50 for blocking adhesion to LAP
Method: as §3, §4

[4] = system: PCLSs prepared from explanted lung tissue from patients with IPF; test: Fibrotic gene expression in PCLSs from IPF lung explants; assay type: cell-based, human
From the text: PCLSs were generated from explanted lung tissue from patients with IPF and cultured as previously described. Mouse PCLSs were generated and cultured as previously described. Messenger ribonucleic acid (mRNA) levels in lysates prepared from snap-frozen tissue slices were quantified via NanoString PlexSet reagents and nCounter SPRINT Profiler (NanoString; Seattle, WA, USA; Additional file 1: Table S2) or TaqMan primers/probes on a Bio-Rad CFX96 thermocycler (Bio-Rad; Hercules, CA, USA; Additional file 1: Table S3).
Human PCLSs were generated from lung tissue explants from patients with IPF undergoing transplant surgery and cultured based on previously reported methods (E7-E12). Slices of tissue (400 µm) were cut using a Compresstome VF-300-0Z (Precisionary Instruments; Natick, MA, USA).
Slices from each individual core (human) or mouse were distributed among the treatment groups to control for variability in the fibrotic injury within the tissue. […] After 3 or 7 days in culture, slices were washed and snap-frozen. Viability of sentinel slices on Days 0/1 and 3/7 was determined using WST-1 Cell Proliferation Reagent (Sigma 5015944001; St Louis, MO, USA).
For all figures (except Fig. 2B, Fig. S2, and Fig. S4), snap-frozen tissue slices were incubated in one-third RLT buffer (Qiagen #79216; Venlo, Netherlands) supplemented with 2 mg/ml proteinase K (Sigma-Aldrich #3115887001; St Louis, MO, USA) at 55 °C for 2 h 45 min, with periodic vortexing to generate ribonucleic acid (RNA)-compatible tissue lysate. This lysate was incubated overnight with probes from a custom fibrosis gene panel and NanoString PlexSet reagents (Table S2). The following day, samples were analyzed on a NanoString nCounter SPRINT Profiler (NanoString; Seattle, WA, USA). Messenger RNA (mRNA) counts were normalized to housekeeping genes (GUSB, HPRT1, RPLP0, and/or POLR1B) and total mRNA counts, relative to vehicle-treated control from the same experiment, are reported.

human integrin αvβ5 = target: T5, human integrin αvβ5 (Homo sapiens, UniProt P06756+P18084); test: Integrin ligand-binding assay, αvβ5 (vitronectin ligand)
T5 construct: purchased R&D Systems 2528-AV
Method: as §1, §2

human integrin αvβ6 = target: T6, human integrin αvβ6 (Homo sapiens, UniProt P06756+P18564); test: Integrin ligand-binding assay, αvβ6 (LAP ligand)
T6 construct: purchased ACROBiosystems or R&D Systems IT6-H52E1 or 3817-AV
Method: as §1, §2

[5] = 7 days, PLN-74809 200 nM, relative to vehicle (Fig. 6B)

T2 sequence (P06756 31-992 limits assumed): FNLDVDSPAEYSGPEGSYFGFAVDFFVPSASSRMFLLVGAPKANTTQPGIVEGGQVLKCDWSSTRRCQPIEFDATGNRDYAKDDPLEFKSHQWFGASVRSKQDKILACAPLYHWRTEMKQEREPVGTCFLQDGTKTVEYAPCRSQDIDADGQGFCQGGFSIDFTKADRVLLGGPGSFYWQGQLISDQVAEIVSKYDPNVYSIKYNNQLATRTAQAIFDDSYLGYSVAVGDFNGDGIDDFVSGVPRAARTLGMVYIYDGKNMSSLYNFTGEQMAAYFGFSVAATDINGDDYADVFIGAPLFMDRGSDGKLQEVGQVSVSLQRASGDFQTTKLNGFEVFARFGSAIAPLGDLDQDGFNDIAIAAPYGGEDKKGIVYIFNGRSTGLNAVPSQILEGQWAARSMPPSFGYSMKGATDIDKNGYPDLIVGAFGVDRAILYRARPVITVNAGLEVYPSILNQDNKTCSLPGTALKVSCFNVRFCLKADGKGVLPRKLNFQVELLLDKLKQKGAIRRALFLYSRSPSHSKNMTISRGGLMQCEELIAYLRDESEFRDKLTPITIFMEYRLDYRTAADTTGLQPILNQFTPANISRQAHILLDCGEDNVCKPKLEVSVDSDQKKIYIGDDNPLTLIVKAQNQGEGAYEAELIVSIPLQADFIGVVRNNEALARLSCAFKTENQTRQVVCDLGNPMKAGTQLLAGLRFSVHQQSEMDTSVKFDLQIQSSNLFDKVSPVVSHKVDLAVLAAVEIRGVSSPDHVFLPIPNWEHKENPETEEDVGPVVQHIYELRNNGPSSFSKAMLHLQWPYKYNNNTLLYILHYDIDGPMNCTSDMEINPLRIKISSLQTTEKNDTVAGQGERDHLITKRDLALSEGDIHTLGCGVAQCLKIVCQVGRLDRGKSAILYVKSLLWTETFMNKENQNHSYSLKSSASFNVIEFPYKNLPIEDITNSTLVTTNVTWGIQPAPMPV
T2 sequence (P05106 27-718 limits assumed): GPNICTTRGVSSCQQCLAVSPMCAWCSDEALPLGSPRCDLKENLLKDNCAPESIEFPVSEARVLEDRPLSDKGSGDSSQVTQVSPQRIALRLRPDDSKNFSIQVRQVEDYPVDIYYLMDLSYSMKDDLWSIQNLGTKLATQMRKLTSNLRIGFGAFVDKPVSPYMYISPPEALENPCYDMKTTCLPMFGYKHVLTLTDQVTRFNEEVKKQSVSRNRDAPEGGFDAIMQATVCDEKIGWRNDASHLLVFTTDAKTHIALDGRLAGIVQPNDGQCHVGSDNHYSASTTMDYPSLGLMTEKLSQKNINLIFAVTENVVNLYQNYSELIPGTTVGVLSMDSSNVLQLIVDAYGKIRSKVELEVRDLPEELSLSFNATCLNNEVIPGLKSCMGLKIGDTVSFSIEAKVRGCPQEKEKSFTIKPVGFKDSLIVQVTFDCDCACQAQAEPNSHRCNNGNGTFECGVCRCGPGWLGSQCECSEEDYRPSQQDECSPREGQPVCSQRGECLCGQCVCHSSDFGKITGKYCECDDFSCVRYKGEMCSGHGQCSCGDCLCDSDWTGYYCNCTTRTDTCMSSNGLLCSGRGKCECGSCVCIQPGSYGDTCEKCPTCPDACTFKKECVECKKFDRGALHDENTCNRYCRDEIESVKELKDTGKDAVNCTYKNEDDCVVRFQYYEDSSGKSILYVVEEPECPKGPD
T5 sequence (P06756 31-992 limits assumed): as the sequence (P06756 31-992 limits assumed) above
T5 sequence (P18084 24-719 limits assumed): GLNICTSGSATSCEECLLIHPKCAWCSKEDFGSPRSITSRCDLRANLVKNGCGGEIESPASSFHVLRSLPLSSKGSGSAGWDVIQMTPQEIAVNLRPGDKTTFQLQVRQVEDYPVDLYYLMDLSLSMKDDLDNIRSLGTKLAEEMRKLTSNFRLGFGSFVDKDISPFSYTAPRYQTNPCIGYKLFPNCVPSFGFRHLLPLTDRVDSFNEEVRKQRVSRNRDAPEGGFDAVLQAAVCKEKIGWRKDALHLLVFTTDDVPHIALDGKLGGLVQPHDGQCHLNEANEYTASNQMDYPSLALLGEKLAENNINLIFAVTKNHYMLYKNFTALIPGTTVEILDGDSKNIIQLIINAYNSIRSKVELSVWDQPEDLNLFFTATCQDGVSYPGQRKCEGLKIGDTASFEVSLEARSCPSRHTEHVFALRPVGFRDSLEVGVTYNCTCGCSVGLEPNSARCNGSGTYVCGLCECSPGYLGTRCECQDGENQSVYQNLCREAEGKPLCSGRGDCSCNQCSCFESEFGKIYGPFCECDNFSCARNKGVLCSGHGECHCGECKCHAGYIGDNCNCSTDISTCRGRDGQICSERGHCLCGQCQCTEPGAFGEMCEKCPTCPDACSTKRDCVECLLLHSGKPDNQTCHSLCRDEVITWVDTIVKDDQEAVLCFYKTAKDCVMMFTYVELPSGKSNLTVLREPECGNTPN
T6 sequence (P06756 31-992 limits assumed): as the sequence (P06756 31-992 limits assumed) above
T6 sequence (P18564 22-707 limits assumed): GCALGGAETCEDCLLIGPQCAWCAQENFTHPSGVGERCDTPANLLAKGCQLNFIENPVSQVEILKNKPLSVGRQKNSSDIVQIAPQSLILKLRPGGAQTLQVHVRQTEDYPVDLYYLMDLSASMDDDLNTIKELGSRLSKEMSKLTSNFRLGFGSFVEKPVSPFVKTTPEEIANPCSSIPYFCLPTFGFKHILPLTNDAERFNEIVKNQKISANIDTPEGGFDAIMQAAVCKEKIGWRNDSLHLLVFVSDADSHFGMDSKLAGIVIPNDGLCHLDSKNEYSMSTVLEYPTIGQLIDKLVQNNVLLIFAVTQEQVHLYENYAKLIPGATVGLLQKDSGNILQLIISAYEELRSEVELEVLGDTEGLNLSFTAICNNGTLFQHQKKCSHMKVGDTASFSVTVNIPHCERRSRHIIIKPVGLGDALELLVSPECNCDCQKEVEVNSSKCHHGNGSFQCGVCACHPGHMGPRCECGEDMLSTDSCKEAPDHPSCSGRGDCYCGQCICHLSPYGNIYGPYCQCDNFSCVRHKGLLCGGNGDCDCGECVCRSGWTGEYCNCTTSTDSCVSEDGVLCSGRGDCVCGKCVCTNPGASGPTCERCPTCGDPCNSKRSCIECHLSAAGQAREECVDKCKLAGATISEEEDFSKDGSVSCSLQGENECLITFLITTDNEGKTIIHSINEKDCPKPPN
T1 sequence (P06756 31-992 limits assumed): as the sequence (P06756 31-992 limits assumed) above
T1 sequence (P26012 43-684 limits assumed): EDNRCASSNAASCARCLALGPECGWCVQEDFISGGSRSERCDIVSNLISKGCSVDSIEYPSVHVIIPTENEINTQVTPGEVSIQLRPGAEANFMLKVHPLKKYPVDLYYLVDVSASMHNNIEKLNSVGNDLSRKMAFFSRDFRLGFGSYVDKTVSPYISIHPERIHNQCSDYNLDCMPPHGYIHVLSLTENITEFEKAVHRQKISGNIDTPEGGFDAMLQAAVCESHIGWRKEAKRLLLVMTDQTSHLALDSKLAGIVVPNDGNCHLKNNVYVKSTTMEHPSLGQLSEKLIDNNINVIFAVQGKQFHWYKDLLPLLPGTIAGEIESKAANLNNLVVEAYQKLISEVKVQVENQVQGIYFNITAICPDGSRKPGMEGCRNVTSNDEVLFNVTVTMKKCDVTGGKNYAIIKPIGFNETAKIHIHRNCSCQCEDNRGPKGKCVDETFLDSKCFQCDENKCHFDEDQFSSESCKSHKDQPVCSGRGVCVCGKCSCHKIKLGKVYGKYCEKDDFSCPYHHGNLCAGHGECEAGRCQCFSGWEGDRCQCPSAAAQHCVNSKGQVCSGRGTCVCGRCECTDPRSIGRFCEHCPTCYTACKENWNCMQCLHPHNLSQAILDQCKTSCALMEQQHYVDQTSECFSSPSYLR
T4 sequence (P06756 31-992 limits assumed): as the sequence (P06756 31-992 limits assumed) above
T4 sequence (P05556 21-728 limits assumed): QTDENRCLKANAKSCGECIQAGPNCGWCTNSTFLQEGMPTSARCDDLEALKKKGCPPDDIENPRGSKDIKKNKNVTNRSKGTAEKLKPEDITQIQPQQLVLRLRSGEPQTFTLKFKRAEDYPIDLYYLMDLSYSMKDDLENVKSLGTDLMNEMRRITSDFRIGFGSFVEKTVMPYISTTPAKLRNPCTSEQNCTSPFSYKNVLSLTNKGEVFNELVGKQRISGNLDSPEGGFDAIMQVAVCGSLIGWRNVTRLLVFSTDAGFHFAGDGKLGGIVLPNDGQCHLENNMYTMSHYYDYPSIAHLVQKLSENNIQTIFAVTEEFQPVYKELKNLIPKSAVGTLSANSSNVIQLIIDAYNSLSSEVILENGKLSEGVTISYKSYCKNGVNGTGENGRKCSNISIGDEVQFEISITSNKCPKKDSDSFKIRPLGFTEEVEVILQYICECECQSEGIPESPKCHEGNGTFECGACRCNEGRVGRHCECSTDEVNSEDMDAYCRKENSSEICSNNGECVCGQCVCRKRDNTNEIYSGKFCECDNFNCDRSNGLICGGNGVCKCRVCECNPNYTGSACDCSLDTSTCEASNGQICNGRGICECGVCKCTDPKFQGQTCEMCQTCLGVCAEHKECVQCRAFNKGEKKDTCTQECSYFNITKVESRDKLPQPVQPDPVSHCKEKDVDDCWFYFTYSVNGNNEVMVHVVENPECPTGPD

COCCN(CCCCc1ccc2c(n1)NCCC2)CC[C@H](Nc1ncnc2ccccc12)C(=O)O [PLN-74809]
IC50 (human integrin αvβ8): 2540 nM | Fold selectivity (vs αvβ6) (human integrin αvβ8; ligand binding): 445× | IC50 (human integrin αvβ3): > 10000 nM | Fold selectivity (vs αvβ6) (human integrin αvβ3; ligand binding): > 1754× | IC50 [1]: 15.7 nM | Fold selectivity (vs αvβ6) ([2]; TGF-β activation): 1× | IC50 [2]: 29.8 nM | IC50 (human integrin αvβ1): 3.4 nM | Fold selectivity (vs αvβ6) (human integrin αvβ1; ligand binding): 0.6× | IC50 [3]: 23.5 nM | reduction of COL1A1 mRNA expression ([4]; 7-day incubation, Compound A 471 nM, 3G9 0.5 µg/ml, PLN-74809 1.82 µM, ALK5i R-268712 1 µM, vs vehicle (Fig. 1A)): 54% | reduction of COL1A1 mRNA expression ([4]; 7 days, PLN-74809 200 nM, nintedanib 75 nM, pirfenidone 50 µM, vs DMSO (Fig. 6A)): 42% | reduction of COL3A1 expression [4, 5]: 30% | reduction of SERPINE1 expression [4, 5]: 39% | reduction of TIMP1 expression [4, 5]: 26% | reduction of collagen gene expression ([4]; at concentrations as low as 2 nM, explanted tissue from a patient with IPF): ~ 50% | lowest concentration sufficient to significantly reduce COL1A1 expression ([4]; dose titration, PCLSs from a single patient with IPF (Fig. S1C)): 2 nM | IC50 (human integrin αvβ5): 6990 nM | Fold selectivity (vs αvβ6) (human integrin αvβ5; ligand binding): 1226× | IC50 (human integrin αvβ6): 5.7 nM | Fold selectivity (vs αvβ6) (human integrin αvβ6; ligand binding): 1×
